Laboratory results as given in US12441730B2, “PRMT5 inhibitors” (Merck Sharp & Dohme LLC, priority 2019, dated 2025).
Like-named read-outs stand apart in the source and are kept apart here.

How the values were obtained:
[1] = target: T1, Full-length (FL)-PRMT5-MEP50 enzyme complex (Homo sapiens, UniProt O14744); assay: PRMT5-MEP50 Enzyme Methylation Assay (Version A); format: biochemical
T1 construct: Full-length (FL)-PRMT5-MEP50 enzyme complex (recombinant proteins from baculovirus-transfected Sf21 cells: FL-PRMT5; MW=73837 kDa and FL-MEP50; MW=38614); made in house; host or cells: baculovirus-transfected Sf21 cells
Experimental: PRMT5-MEP50 Enzyme Methylation Assay (Version A)
PRMT5-MEP50 biochemical assay is a direct measurement of the methylation activity of the enzyme complex on a short peptide substrate derived from the N-terminus of H4 histone. Methylation experiment was performed with recombinant PRMT5-MEP50 protein complex. The assessment of inhibitory effect of small molecules was measured by the effectiveness of the compounds to inhibit this reaction (EC50).
In this assay, the potency (EC50) of each compound was determined from a twenty-point (1:2 serial dilution; top compound concentration of 100000 nM) titration curve using the following outlined procedure. To each well of a white ProxiPlus 384 well-plate, 100 nL of compound (1% DMSO in final assay volume of 10 μL) was dispensed, followed by the addition of 8 μL of 1× assay buffer (50 mM Bicine pH 8.0, 1 mM DTT, 0.004% Tween20, 0.01% BSA) containing 1.25 nM of Full-length (FL)-PRMT5-MEP50 enzyme complex (recombinant proteins from baculovirus-transfected Sf21 cells: FL-PRMT5; MW=[…] and FL-MEP50; MW=38614) and 1 μL of 150 μM S-(5′-Adenosyl)-L-Methionine Chloride (SAM). A plate were sealed and placed in a 37° C. humidified chamber for a 60 minutes pre-incubation with compound. Subsequently, each reaction was initiated by the addition of 1 μL 1× assay buffer containing 750 nM biotinylated H4R3(Me1) peptide. The final reaction in each well of 10 μL consists of 1.0 nM PRMT5-MEP50, 75 nM biotinylated-peptide, and 15 μM SAM. Methylation reactions were allowed to proceed for 150 minutes in a sealed plate at 37° C. Reactions were immediately quenched by the addition of 1 μL of 5% formic acid. A plate was then frozen and shipped to SAMDI™ Tech Inc. to determine the percent conversion from H4R3(Me1) to H4R3(Me2). Dose-response curves were generated by plotting percent effect (% product conversion; Y-axis) vs. Log 10 compound concentrations (X-axis). EC50 values were determined by non-linear regression according to models for either sigmoidal (4 parameters) or biphasic (7 parameters) dose-response curves.

[2] = system: symmetric dimethylation of arginine (SDMA) of PRMT5 substrates in MCF-7 cells; assay: PRMT5 Cell Target Engagement (TE) Assay; format: cell-based; details: 3 days treatment, SDMA high content imaging
Text: PRMT5 Cell Target Engagement (TE) Assay
The PRMT5 TE assay is a biomarker assay for identifying compounds that inhibit symmetric dimethylation of arginine (SDMA) of PRMT5 substrates. The following substrates have been reported for PRMT5: histone H2A and H4 R3, Histone H3 R2, Histone H3 R8, spliceosome Sm proteins, ribosomal protein RPS10, p53, FEN1, nucleoplasmin, nucleolin, EGFR and EBNA. The assay focuses on detecting symmetrically dimethylated nuclear proteins using high content imaging technology. Detection of the expression of symmetrically dimethylated nuclear proteins is through a mixture of primary rabbit monoclonal antibodies to SDMA (CST 13222), which in turn recognized by an Alexafluor 488 dye-conjugated anti-rabbit IgG secondary antibody. The IN Cell Analyzer 2200 or Opera-Phenix measures nuclear Alexafluor 488 fluorescent dye intensity that is directly related to the level of expression of symmetrically dimethylated nuclear proteins at the single cell level. Nuclear AF488 dye intensities are compared to the mean value for DMSO treated cells (MIN) to report percent of inhibition for each compound-treated well.
In this assay, the cell potency (EC50) of each compound was determined from a ten point (1:3 serial dilution; top compound concentration of 10000 nM) titration curve using the following outlined procedure. Each well of a BD falcon collagen coated black/clear bottom 384-well plate was seeded with 4000 MCF-7 cells in 30 μl media and allowed to attach for 5 h. Media is ATCC-formulated Eagle's Minimum Essential Medium, Catalog No. 30-2003. To make the complete growth medium, the following components were added to the base medium: 0.01 mg/mL human recombinant insulin; fetal bovine serum to a final concentration of 10%. Additional 30 μl of media containing 2× compounds were added to each well. Cells were treated for 3 days in 37° C. CO2 incubator. On day 3, cells were fixed with Cytofix, permeabilized with 0.4% Triton-X-100/Cytofix, and washed with D-PBS without Ca/Mg. Cells were blocked with Licor Odessey blocking reagent for 1 h at room temperature, followed by incubation with anti-SDMA (1:1000) antibody at 4° C. overnight. 1° antibody was removed, followed by three washings with DPBS without Ca/Mg and 0.05% Tween20. Hoechst (5 μg/mL), Cell Mask deep stain (1:2000) and Alexa488-conjugated goat anti-rabbit IgG (2 μg/mL) was added for 1 h at room temperature. A final washing step (three washes) was performed before sealing plate for imaging on In Cell Analyzer 2200 or Opera-Phenix. Images from analyzer were uploaded to Columbus (at WP or BOS) for image analysis. IC50 values were determined by 4 parameters robust fit of percent fluorescence units vs. (Log10) compound concentrations.

[3] = single EC50 = 4 parameter single site sigmoidal fit, EC50 1 = first value of 7 parameter biphasic fit, read-out: Enzyme Methylation Assay Version A (EC50 or EC50 1)
[4] = second value of 7 parameter biphasic fit, read-out: Enzyme Methylation Assay Version A (EC50 2)

T1 sequence (O14744 whole entry): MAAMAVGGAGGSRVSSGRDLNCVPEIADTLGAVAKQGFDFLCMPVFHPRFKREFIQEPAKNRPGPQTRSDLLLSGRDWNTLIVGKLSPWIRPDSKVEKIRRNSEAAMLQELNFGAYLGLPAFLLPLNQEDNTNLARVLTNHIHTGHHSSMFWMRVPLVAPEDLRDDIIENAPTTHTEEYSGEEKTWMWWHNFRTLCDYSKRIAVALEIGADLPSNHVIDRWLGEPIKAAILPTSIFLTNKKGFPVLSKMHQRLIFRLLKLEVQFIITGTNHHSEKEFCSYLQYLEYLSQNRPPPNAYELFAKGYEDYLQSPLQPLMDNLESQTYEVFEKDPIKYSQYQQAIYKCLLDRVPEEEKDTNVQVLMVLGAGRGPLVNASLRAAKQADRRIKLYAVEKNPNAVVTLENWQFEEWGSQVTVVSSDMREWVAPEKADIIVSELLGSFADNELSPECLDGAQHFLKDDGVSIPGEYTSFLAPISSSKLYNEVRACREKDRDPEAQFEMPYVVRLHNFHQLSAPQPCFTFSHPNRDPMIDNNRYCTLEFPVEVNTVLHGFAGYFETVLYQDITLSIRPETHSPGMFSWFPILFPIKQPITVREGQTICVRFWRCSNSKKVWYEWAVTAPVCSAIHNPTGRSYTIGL
T1 sequence (Q9BQA1 whole entry partner): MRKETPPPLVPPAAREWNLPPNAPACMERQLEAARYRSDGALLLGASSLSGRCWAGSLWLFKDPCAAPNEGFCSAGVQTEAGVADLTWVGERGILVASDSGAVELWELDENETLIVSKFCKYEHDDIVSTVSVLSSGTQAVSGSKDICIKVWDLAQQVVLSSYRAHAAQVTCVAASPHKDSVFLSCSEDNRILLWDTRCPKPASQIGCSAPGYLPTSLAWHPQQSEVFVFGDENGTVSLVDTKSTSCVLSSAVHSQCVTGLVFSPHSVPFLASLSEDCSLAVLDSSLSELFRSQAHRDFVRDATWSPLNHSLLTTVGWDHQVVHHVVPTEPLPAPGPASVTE

SMILES: CO[C@H](C)c1cc(-c2ccnn2C(C)C)cn2cc(C(=O)N3CC[C@]4(Cc5ccccc5CN4)[C@H](O)C3)nc12 [Example 243, [(3R,3′R)-3′-hydroxy-1,4-dihydro-1′H,2H-spiro[isoquinoline-3,4′-piperidin]-1′-yl]{6-(1-isopropyl-1H-pyrazol-5-yl)-8-[(1R)-1-methoxyethyl]imidazo[1,2-a]pyridin-2-yl}methanone]
- EC50 [1, 3]: 1.17 nM
- EC50 ([2]; Homo sapiens, MCF7, 72 h): 3.59 nM

SMILES: CC1OC(=O)Nc2cc(C(=O)N3CC[C@]4(Cc5ccccc5CN4)[C@H](O)C3)ccc21 (stereo partly drawn) [compound 171, 7-{[(3R,3′R)-3′-hydroxy-1,4-dihydro-1′H,2H-spiro[isoquinoline-3,4′-piperidin]-1′-yl]carbonyl}-4-methyl-1,4-dihydro-2H-3,1-benzoxazin-2-one]
- EC50 [1, 4]: 733 nM
- EC50 [1, 3]: 0.929 nM
- EC50 ([2]; Homo sapiens, MCF7, 72 h): 6.47 nM

SMILES: O=C(c1cn2cc(Br)cnc2n1)N1CC[C@]2(Cc3ccccc3CN2)[C@H](O)C1 [Example 24, (6-bromoimidazo[1,2-a]pyrimidin-2-yl)((3R,3’RR)-3′-hydroxy-1,4-dihydro-1′H,2H-spiro[isoquinoline-3,4′-piperidin]-1′-yl)methanone]
- EC50 [1, 4]: 146 nM
- EC50 [1, 3]: 0.461 nM
- EC50 ([2]; Homo sapiens, MCF7, 72 h): 4.09 nM

SMILES: CCN1CCNc2cc(C(=O)N3CC[C@]4(Cc5ccccc5CN4)[C@H](O)C3)ccc2C1=O [Example 26, 4-ethyl-8-((3R,3’R)-3′-hydroxy-1,4-dihydro-1′H,2H-spiro[isoquinoline-3,4′-piperidine]-1′-carbonyl)-1,2,3,4-tetrahydro-5H-1,4-benzodiazepin-5-one]
- EC50 [1, 4]: 684 nM
- EC50 [1, 3]: 1.44 nM
- EC50 ([2]; Homo sapiens, MCF7, 72 h): 12.3 nM

SMILES: O=C(c1cn2cc(Br)cc(C(O)C(F)(F)F)c2n1)N1CC[C@]2(Cc3ccccc3CN2)[C@H](O)C1 (single isomer, unassigned) [Example 31, (6-bromo-8-((S or R)-2,2,2-trifluoro-1-hydroxyethyl)imidazo[1,2-a]pyridin-2-yl)((3R,3’R)-3′-hydroxy-1,4-dihydro-2H-spiro[isoquinoline-3,4′-piperidin]-1′-yl)methanone]
- EC50 [1, 4]: 72.4 nM
- EC50 [1, 3]: 0.215 nM
- EC50 [2]: 4.49 nM

SMILES: COC(C)(C)c1ccc2nc(C(=O)N3CC[C@]4(Cc5ccccc5CN4)[C@H](O)C3)cn2c1 (stereo in doubt) [Example 46, (3′-hydroxy-2,4-dihydro-1H-spiro[isoquinoline-3,4′-piperidin]-1′-yl)(6-(2-methoxypropan-2-yl)imidazo[1,2-a]pyridin-2-yl)methanone]
- EC50 [1, 4]: 138 nM
- EC50 [1, 3]: 0.498 nM
- EC50 ([2]; Homo sapiens, MCF7, 72 h): 27.1 nM

SMILES: CO[C@H](C)c1cc(N2Cc3ncsc3C2)cn2cc(C(=O)N3CC[C@]4(Cc5ccccc5CN4)[C@H](O)C3)nc12 [Example 235, {6-(4,6-dihydro-5H-pyrrolo[3,4-d][1,3]thiazol-5-yl)-8-[(1R)-1-methoxyethyl]imidazo[1,2-a]pyridin-2-yl}[(3R,3′R)-3′-hydroxy-1,4-dihydro-1′H,2H-spiro[isoquinoline-3,4′-piperidin]-1′-yl]methanone]
- EC50 [1, 3]: 20.6 nM
- EC50 ([2]; Homo sapiens, MCF7, 72 h): 62.7 nM

SMILES: CO[C@H](C)c1cc(N2CC3(CCCO3)C2)cn2cc(C(=O)N3CC[C@]4(Cc5ccccc5CN4)[C@H](O)C3)nc12 [Example 236, [(3R,3′R)-3′-hydroxy-1,4-dihydro-1′H,2H-spiro[isoquinoline-3,4′-piperidin]-1′-yl]{8-[(1R)-1-methoxyethyl]-6-(5-oxa-2-azaspiro[3.4]oct-2-yl)imidazo[1,2-a]pyridin-2-yl}methanone]
- EC50 [1, 3]: 7.09 nM
- EC50 ([2]; Homo sapiens, MCF7, 72 h): 20.6 nM

SMILES: O=C(c1cnc2ncc(C(F)(F)F)cn12)N1CC[C@]2(Cc3ccccc3CN2)[C@H](O)C1 [Example 168, [(3R,3′R)-3′-hydroxy-1,4-dihydro-1′H,2H-spiro[isoquinoline-3,4′-piperidin]-1′-yl][6-(trifluoromethyl)imidazo[1,2-a]pyrimidin-3-yl]methanone]
- EC50 [1, 4]: 385 nM
- EC50 [1, 3]: 2.56 nM
- EC50 ([2]; Homo sapiens, MCF7, 72 h): 50.2 nM

SMILES: O=C(c1cn2cc(Cl)ccc2n1)N1CC[C@]2(Cc3ccccc3CN2)[C@H](O)C1 [Example 37, (6-chloroimidazo[1,2-a]pyridin-2-yl)((3R,3’R)-3′-hydroxy-1,4-dihydro-2H-spiro[isoquinoline-3,4′-piperidin]-1′-yl)methanone]
- EC50 [1, 4]: 251 nM
- EC50 [1, 3]: 0.757 nM
- EC50 ([2]; Homo sapiens, MCF7, 72 h): 1.61 nM

SMILES: COC(C)c1cc(C2CC2)cn2cc(C(=O)N3CC[C@]4(Cc5ccccc5CN4)[C@H](O)C3)nc12 (stereo partly drawn) [Example 132, [6-cyclopropyl-8-(1-methoxyethyl)imidazo[1,2-a]pyridin-2-yl][(3R,3′R)-3′-hydroxy-1,4-dihydro-1′H,2H-spiro[isoquinoline-3,4′-piperidin]-1′-yl]methanone]
- EC50 [1, 4]: 123 nM
- EC50 [1, 3]: 0.244 nM
- EC50 ([2]; Homo sapiens, MCF7, 72 h): 6.61 nM

SMILES: O=C(c1cn(C(F)F)cn1)N1CC[C@]2(Cc3ccccc3CN2)[C@H](O)C1 [Example 224, [1-(difluoromethyl)-1H-imidazol-4-yl][(3R,3′R)-3′-hydroxy-1,4-dihydro-1′H,2H-spiro[isoquinoline-3,4′-piperidin]-1′-yl]methanone]
- EC50 [1, 4]: 66800 nM
- EC50 [1, 3]: 3510 nM
- EC50 ([2]; Homo sapiens, MCF7, 72 h): ≥ 10000 nM

SMILES: CN(C)C(=O)c1ccc2nc(C(=O)N3CC[C@]4(Cc5ccccc5CN4)[C@H](O)C3)cn2c1 [Example 2, 2-((3R,3′R)-3′-hydroxy-2,4-dihydro-1H-spiro[isoquinoline-3,4′-piperidin]-1′-ylcarbonyl)-N,N-dimethylimidazo[1,2-a]pyridine-6-carboxamide]
- EC50 [1, 4]: 1380 nM
- EC50 [1, 3]: 0.629 nM
- EC50 ([2]; Homo sapiens, MCF7, 72 h): 75.8 nM

SMILES: Cc1c(Br)cnc2nc(C(=O)N3CC[C@]4(Cc5ccccc5CN4)[C@H](O)C3)cn12 [Example 119, (6-bromo-5-methylimidazo[1,2-a]pyrimidin-2-yl)[(3R,3′R)-3′-hydroxy-1,4-dihydro-1′H,2H-spiro[isoquinoline-3,4′-piperidin]-1′-yl]methanone]
- EC50 [1, 4]: 6460 nM
- EC50 [1, 3]: 11.8 nM
- EC50 ([2]; Homo sapiens, MCF7, 72 h): 274 nM

SMILES: Cc1nc2ncc(C(=O)N3CC[C@]4(Cc5ccccc5CN4)[C@H](O)C3)n2cc1Br [Example 140, (6-bromo-7-methylimidazo[1,2-a]pyrimidin-3-yl)[(3R,3′R)-3′-hydroxy-1,4-dihydro-1′H,2H-spiro[isoquinoline-3,4′-piperidin]-1′-yl]methanone]
- EC50 [1, 3]: 1390 nM
- EC50 ([2]; Homo sapiens, MCF7, 72 h): 2090 nM
